Columns and labels:
Acetylcholinesterase [1] = target: T1, Acetylcholinesterase (Electrophorus electricus, UniProt O42275)
Description: Inhibition of Electrophorus electricus AChE by spectrophotometry

SH-SY5Y [2] = assay: Antioxidant activity in human SH-SY5Y cells assessed as decrease in H2O2-induced reactive oxygen species generation at 0.3 uM by fluorescence method; format: functional; parameters: scale not given: the % may be the effect or the level left
Acetylcholinesterase [3] = target: Acetylcholinesterase (Homo sapiens, UniProt P22303)
Description: Inhibition of human erythrocyte AChE by Ellman's method

Cholinesterase = Cholinesterase (Homo sapiens, UniProt P06276)
Description: Inhibition of human serum BuChE by Ellman's method

Acetylcholinesterase [4] = target: T1, Acetylcholinesterase; remark: listed apart in the source
Description: Inhibition of Electrophorus electricus AChE by Ellman's method

SH-SY5Y [5] = assay: cells; settings: Homo sapiens, read-out: INH
Description: Inhibition of potassium chloride-induced cytosolic calcium levels in human SH-SY5Y cells at 0.3 uM by fluorescence method relative to control

T1 sequence (O42275 whole entry): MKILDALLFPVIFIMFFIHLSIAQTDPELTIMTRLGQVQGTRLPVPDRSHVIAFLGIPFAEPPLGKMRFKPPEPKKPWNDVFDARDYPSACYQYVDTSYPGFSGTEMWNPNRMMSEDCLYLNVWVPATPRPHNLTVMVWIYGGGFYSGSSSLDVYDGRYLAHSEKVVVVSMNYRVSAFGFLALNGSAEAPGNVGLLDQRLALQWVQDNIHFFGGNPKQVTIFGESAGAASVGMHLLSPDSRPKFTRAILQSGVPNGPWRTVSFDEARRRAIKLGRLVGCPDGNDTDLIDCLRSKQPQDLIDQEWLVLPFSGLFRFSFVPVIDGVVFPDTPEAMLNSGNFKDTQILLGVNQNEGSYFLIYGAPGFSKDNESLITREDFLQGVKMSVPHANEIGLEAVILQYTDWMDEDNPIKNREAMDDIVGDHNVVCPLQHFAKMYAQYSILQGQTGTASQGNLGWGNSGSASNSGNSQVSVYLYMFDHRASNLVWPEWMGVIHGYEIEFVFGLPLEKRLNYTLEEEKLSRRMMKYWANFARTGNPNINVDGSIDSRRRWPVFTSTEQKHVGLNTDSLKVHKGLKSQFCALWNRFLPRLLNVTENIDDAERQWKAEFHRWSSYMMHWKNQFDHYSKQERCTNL
Sequence of Acetylcholinesterase (Homo sapiens, UniProt P22303) (P22303 whole entry): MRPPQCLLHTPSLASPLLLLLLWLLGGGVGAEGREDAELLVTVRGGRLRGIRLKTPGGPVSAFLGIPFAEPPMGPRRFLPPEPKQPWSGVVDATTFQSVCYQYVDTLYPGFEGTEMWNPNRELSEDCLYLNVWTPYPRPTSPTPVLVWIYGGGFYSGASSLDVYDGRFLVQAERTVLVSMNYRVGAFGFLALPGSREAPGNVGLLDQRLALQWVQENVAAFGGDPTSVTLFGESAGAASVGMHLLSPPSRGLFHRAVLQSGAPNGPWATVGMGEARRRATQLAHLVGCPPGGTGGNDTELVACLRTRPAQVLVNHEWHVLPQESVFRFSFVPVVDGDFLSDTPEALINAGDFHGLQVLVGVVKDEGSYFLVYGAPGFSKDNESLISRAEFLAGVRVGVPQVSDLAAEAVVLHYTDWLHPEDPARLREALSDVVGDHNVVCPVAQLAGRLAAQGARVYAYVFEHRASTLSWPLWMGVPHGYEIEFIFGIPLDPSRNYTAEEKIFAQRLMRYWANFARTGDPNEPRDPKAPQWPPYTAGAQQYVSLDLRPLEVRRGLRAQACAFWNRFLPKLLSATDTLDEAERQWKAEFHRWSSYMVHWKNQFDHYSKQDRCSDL
Sequence of Cholinesterase (P06276 whole entry): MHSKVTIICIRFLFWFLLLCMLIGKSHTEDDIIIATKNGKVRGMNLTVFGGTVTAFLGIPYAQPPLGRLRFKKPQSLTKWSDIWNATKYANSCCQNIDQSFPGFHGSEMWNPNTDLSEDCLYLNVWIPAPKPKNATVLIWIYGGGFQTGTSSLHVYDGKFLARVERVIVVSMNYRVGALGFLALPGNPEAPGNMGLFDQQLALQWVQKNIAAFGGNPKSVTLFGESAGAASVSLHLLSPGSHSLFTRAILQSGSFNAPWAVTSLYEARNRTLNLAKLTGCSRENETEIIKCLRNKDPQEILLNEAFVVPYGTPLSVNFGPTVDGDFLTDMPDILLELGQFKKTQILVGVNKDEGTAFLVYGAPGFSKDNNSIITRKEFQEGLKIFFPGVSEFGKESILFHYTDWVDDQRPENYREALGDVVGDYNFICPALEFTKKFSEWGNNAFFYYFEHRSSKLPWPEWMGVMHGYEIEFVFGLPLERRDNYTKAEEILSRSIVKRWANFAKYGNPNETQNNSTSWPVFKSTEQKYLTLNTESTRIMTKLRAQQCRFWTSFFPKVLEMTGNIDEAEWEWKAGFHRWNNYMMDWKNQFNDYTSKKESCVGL

| SMILES | IC50 (Acetylcholinesterase [1]) [nM] | Activity (SH-SY5Y [2]) [%] | IC50 (Acetylcholinesterase [3]) [nM] | IC50 (Cholinesterase) [µM] | Ki (Acetylcholinesterase [4]) [nM] | inhibition at 0.3 µM (SH-SY5Y [5]) [%] |
| --- | --- | --- | --- | --- | --- | --- |
| CCOC(=O)C1=C(C)Oc2nc3c(c(N)c2C1c1ccncc1)CCCC3 (centres undefined) | 3000 |  |  |  |  |  |
| CCOC(=O)c1c(C)nc2nc3c(c(N)c2c1-c1ccccc1)CCCC3 | 820 |  |  |  |  |  |
| CCOC(=O)c1c(C)nc2nc3c(c(N)c2c1-c1ccncc1)CCCC3 | 1400 |  |  |  |  |  |
| CCOC(=O)C1=C(C)Oc2nc3c(c(N)c2C1c1ccc(OC)cc1)CCCC3 (centres undefined) | 870 |  |  |  |  |  |
| CC1(C)CC(=O)C2=C(C1)Nc1nc3c(c(N)c1C2c1ccc(F)cc1)CCCC3 (centres undefined) | 540 | 95.7 | 1600 | > 100 | 106 | 32.9 |
| COc1ccc(C2C3=C(CC(C)(C)CC3=O)Nc3nc4c(c(N)c32)CCCC4)cc1 (centres undefined) | 220 | 87.8 | 370 | > 100 | 41.9 | 31 |
| CC1(C)CC(=O)C2=C(C1)Nc1nc3c(c(N)c1C2c1ccncc1)CCCC3 (centres undefined) | 600 | 82.9 | 2800 | > 100 | 157 | 45.1 |
| CC1(C)CC(=O)C2=C(C1)Oc1nc3c(c(N)c1C2c1ccccc1)CCCC3 (centres undefined) | 49000 |  |  |  |  |  |
| Cc1ccc(C2C3=C(CC(C)(C)CC3=O)Oc3nc4c(c(N)c32)CCCC4)cc1 (centres undefined) | 52000 |  |  |  |  |  |
| CC1(C)CC(=O)C2=C(C1)Nc1nc3c(c(N)c1C2c1ccccc1)CCCC3 (centres undefined) | 320 | 87.9 | 710 | > 100 | 61.3 | 24.6 |
| Cc1ccc(C2C3=C(CC(C)(C)CC3=O)Nc3nc4c(c(N)c32)CCCC4)cc1 (centres undefined) | 230 | 79.9 | 670 | > 100 | 38.9 | 30.9 |
| CC1(C)CC(=O)C2=C(C1)Oc1nc3c(c(N)c1C2c1ccc(F)cc1)CCCC3 (centres undefined) | 70000 |  |  |  |  |  |
| COc1ccc(C2C3=C(CC(C)(C)CC3=O)Oc3nc4c(c(N)c32)CCCC4)cc1 (centres undefined) | 4100 |  |  |  |  |  |
| CC[N+](C)(CC)CCC[n+]1c(-c2ccccc2)c2cc(N)ccc2c2ccc(N)cc21 [PROPIDIUM] |  |  |  |  | 6800 |  |

Source: ChEMBL document CHEMBL1155914 (Bioorg Med Chem, 2008)
